Paper PMC3781062 (PLoS ONE, 2013)
Where a chain is given by its changes, count along the chain named. “And” between values parts separate entries of the source, which are not always exact repeats. Equal entries are not always repeated.

Tests used:
[1] = target: T1, CYP1B1 (Homo sapiens, UniProt Q16678, L432V); assay: Inhibition of CYP1B1-dependent EROD activity, E. coli membranes co-expressing CYP1B1 and CPR; assay type: biochemical
T1 construct: made in house; host or cells: E. coli JM109
T1 sequence (Q16678 1-543 L432V): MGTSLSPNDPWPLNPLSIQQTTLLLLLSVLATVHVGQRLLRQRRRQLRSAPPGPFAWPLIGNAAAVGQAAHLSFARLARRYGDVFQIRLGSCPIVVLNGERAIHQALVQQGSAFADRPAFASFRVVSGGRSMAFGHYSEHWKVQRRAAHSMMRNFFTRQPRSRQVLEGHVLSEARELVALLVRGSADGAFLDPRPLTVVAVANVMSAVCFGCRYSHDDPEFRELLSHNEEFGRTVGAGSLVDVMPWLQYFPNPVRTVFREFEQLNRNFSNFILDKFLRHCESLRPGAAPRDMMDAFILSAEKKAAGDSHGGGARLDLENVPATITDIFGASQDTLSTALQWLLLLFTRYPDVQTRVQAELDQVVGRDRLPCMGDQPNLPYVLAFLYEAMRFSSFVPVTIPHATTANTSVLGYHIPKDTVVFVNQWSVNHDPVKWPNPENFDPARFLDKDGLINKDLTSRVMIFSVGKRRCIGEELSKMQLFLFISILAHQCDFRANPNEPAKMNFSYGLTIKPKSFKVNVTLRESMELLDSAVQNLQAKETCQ
Protocol: (§1) EROD activity was determined as previously described, but modified in 96-well plate format with quadruplicate replicates, using a Fluoroskan fluorescence reader (Labsystems, Cambridge, UK). […] Calibration curves were constructed with authentic resorufin standards and linear regression analysis used to calculate the amount of resorufin formed in each test sample. Enzyme kinetics for CYP1B1-catalysed EROD activity were determined at substrate concentrations from 0.002 to 2 µM. Apparent Km and Vmax values were estimated by non-linear regression analysis (GraFit software program, UK) of the substrate concentration [S]-enzyme activity [V], fitting data to a Michaelis-Menten model.

[2] = target: T2, CYP1B1*4 (Homo sapiens, UniProt Q16678, L432V/N453S); assay: Inhibition of EROD activity of CYP1B1 allelic variant co-expressed with CPR; assay type: biochemical; details: mean ± SD of triplicate determinations, read-out: IC50 against CYP1B1-dependent EROD activity (converted)
T2 construct: made in house; host or cells: E. coli JM109
T2 sequence (Q16678 1-543 L432V/N453S): T1 sequence (Q16678 1-543 L432V) with N453S
Protocol: (§2) Construction of CYP1B1 and CPR expression plasmids has been described previously. The CYP1B1 alleles CYP1B1*1, CYP1B1*3 and CYP1B1*4 were co-expressed with CPR in E. coli JM109 cells and membranes prepared as described previously. P450 content was determined spectrophotometrically, and CPR activity estimated by cytochrome c reduction. […] Solubilised protein lysates or human liver microsomes were separated by SDS-PAGE, transferred onto Hybond-ECL nitrocellulose membranes (Amersham, UK) and probed with CYP1B1 (BD Gentest, Woburn, MA) and CPR antibodies, as previously described.
as §1

[3] = target: CYP1B1*1 (Homo sapiens, UniProt Q16678); assay: as above; assay type: biochemical; details: IC50 against CYP1B1-dependent EROD activity, mean ± SD of triplicate determinations
Protocol: as §2, §1

[4] = target: CYP1B1*3 (Homo sapiens, UniProt Q16678, form not given); assay: as above; assay type: biochemical; details: probe 7-ethoxyresorufin (EROD)
Protocol: as §2, §1

[5] = system: CHO cells; assay: PUVA cytotoxicity, neutral red uptake assay
Protocol: (§3) CHO cell lines stably over-expressing CYP1B1 and CPR were generated as previously described. CHO cells were maintained at 37°C/5% CO2 in Dulbecco’s Modified Eagle’s medium (DMEM) supplemented with 10% fetal bovine serum (FBS), 100 U/ml penicillin, 100 µg/ml streptomycin, 1 U/ml each of hypoxanthine and thymine (Invitrogen, Paisley-UK). Similar culture conditions, with the addition of G-418 (400 µg/ml), were used for CHO cells stably expressing CPR (CHO-CPR). CHO cells stably co-expressing CYP1B1 and CPR (CHO-1B1/CPR) were maintained at 37°C/5% CO2, but in hypoxanthine and thymine-free DMEM supplemented with 10% dialysed FBS and the appropriate selection (0.3 µM MTX and 400 µg/ml G-418). HaCaT keratinocytes were grown to 80% confluence in DMEM supplemented with 10% fetal bovine serum (FBS), 100 U/ml penicillin, 100 µg/ml streptomycin and 2 mM glutamine. Cells were harvested and microsomes prepared as described previously. HaCaT cell microsomes and microsomes from human skin biopsies obtained from peri-lesional skin from psoriasis patients, [13] were used to investigate functional CYP1B1 expression using EROD assays.
(§4) To investigate CHO cell sensitivity to UVA and PUVA, actively dividing cells (10000 cells/well) were seeded in 96-well plates (Iwaki, Japan) in quadruplicates in 200 µl culture medium and allowed to grow for 18–20 h. Cells were irradiated at room temperature with a UVA source (2×6 ft Cosmolux 15500/100 W, 1.7 mW/cm^2 (320–400 nm; λmax = 365 nm), Germany) through a 4 mm thick window glass filter at multiple UVA doses (0, 1.5, 4.0 and 7.5 J/cm^2), monitoring irradiance with a Waldmann UV meter equipped with UVA detector. Control samples were kept in the dark under the same conditions. […] Control samples were pre-incubated with solvent and kept in the dark under the same conditions. After each treatment, fresh culture medium was added and cells returned to an incubator at 37°C/5%CO2 for 24 h. Cell viability was assessed using neutral red uptake assays; quadruplicate replicates of each treatment were performed, and each experiment repeated twice. PUVA cytotoxicity data was assessed by non-linear regression analysis for dose-response curves (IC50) fitting (GraFit software program, UK) and unpaired Student’s t-test (Statview 4.1 software).

[6] = system: CHO-CPR cells; assay: PUVA cytotoxicity, neutral red uptake assay
Protocol: as §3, §4

[7] = target: T3, CYP1A1 (Homo sapiens, UniProt P04798); details: α-naphthoflavone 5 µM; recombinant CYP1A1
T3 sequence (P04798 1-512): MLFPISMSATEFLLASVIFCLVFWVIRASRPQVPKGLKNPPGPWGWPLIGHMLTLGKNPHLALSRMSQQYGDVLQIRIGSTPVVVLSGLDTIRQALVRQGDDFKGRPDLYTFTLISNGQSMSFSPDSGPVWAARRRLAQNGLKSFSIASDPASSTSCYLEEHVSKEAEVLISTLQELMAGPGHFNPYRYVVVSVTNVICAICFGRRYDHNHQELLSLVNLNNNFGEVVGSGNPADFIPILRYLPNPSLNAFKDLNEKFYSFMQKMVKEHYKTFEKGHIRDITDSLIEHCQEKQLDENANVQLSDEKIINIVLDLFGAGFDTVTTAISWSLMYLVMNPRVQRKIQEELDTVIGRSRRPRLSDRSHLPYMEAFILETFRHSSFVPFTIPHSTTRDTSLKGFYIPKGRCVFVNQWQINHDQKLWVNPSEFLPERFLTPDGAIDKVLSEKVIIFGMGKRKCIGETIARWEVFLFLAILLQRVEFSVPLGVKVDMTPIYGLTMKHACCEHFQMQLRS
Protocol: (§5) After 3 min 37°C pre-incubation, reactions were initiated by 40 µl 5 mM NADPH containing 30 mM glutathione (GSH) in 50 mM PB (pH 7.4). Reactions were incubated for 10 min in a shaking water bath at 37°C, terminated by the addition of 100 µl ice-cold methanol containing 3% perchloric acid, and placed on ice for 10 min. Zero-time controls were terminated before the addition of P450 membranes; no-NADPH control reactions were initiated with 20 µl 50 mM PB (pH 7.4) containing 30 mM GSH. Samples were vortexed for 1 min, centrifuged at 12 000 rpm for 5 min, supernatants collected and analysed by HPLC analysis [28].

[8] = system: human liver microsomes; assay: 8-MOP metabolism (substrate depletion) in human liver microsomes; assay type: in vitro ADME; details: α-naphthoflavone 5 µM
Protocol: as §5

[9] = system: CYP1B1; details: α-naphthoflavone 5 µM; recombinant CYP1B1
Protocol: as §5

Compound | IC50 ([1]; 7-ethoxyresorufin at Km concentration, estimated) [nM] | Mode of inhibition of CYP1B1 ([1]; Lineweaver-Burk plots, six 8-MOP and four 7-ethoxyresorufin concentrations) | Ki ([1]; n = 3) [nM] | IC50 [2] | IC50 [3] | IC50 at 3 min [4] | Cytotoxicity of 8-MOP alone (no UVA) ([5]; CHO cells, 8-MOP 0–5 µM, dark) | IC50 ([5]; Cricetulus griseus, CHO, light or radiation study, read-out: IC50 for 8-MOP in the presence of UVA) | Cytotoxicity of 8-MOP alone (no UVA) ([6]; CHO-CPR cells, 8-MOP alone) | IC50 ([6]; Cricetulus griseus, light or radiation study, read-out: IC50 for 8-MOP in the presence of UVA) | 8-MOP metabolism in presence of inhibitor [7] | 8-MOP metabolism in presence of inhibitor [8] | 8-MOP metabolism in presence of inhibitor [9]
COc1c2occc2cc2ccc(=O)oc12 [8-MOP, 8-methoxypsoralen] | 2000 ± 100 | mixed inhibition | 3580 ± 1000 | 601 nM and 600 nM | 1710 nM and 1700 nM | 0.326 µg/mL and 1.5 µM | no significant cytotoxicity | 0.461 µg/mL and 2.13 µM | not cytotoxic | 0.54 µg/mL and 2.5 µM | – | – | –
O=c1cc(-c2ccccc2)oc2c1ccc1ccccc12 [α-naphthoflavone] | – | – | – | – | – | – | – | – | – | – | 53 % of control levels | 59 % of control levels | 62 % of control levels
